Laboratory results: patent US4868321A, “Isothiocyanate intermediates” (FMC Corporation, priority 1988, dated 1989)

Tests used:
Assay type in all cases: in vivo
[1] = tested on: Johnsongrass; assay: Preemergence Herbicidal Activity, Johnsongrass; settings: Sorghum halepense, pre-emergence
Source text: (§1) The herbicidal data in the following Tables 3 and 4 was obtained in the manner described in PCT published application no. […] In those tables, the test compounds are identified by numbers which correspond to those in Table 1, "kg/ha" is kilograms per hectare, and "% C" is percent control.

[2] = tested on: Velvetleaf; assay: Postemergence Herbicidal Activity, Velvetleaf; settings: Abutilon theophrasti, post-emergence; for pest or weed control at 2000 g/ha: 2.0 kg/ha
Source text: (§2) The herbicidal data in the following Tables 3 and 4 was obtained in the manner described in PCT published application no. WO 85/01939, previously mentioned, usually employing solutions of the herbicidal compound in 50/50 acetone/water mixtures. In those tables, the test compounds are identified by numbers which correspond to those in Table 1, "kg/ha" is kilograms per hectare, and "% C" is percent control.

[3] = tested on: Field Bindweed; assay: Preemergence Herbicidal Activity, Field Bindweed; settings: pre-emergence
Source text: as §2

[4] = tested on: Rice; assay: Preemergence Herbicidal Activity, Rice; settings: Oryza sativa, pre-emergence, 2.0 kg/ha
Source text: as §1

[5] = tested on: Barnyardgrass; assay: Postemergence Herbicidal Activity, Barnyardgrass; settings: Echinochloa crus-galli, post-emergence; for pest or weed control at 2000 g/ha: 2.0 kg/ha
Source text: as §1

[6] = tested on: Morningglory; assay: Preemergence Herbicidal Activity, Morningglory; settings: Ipomoea, pre-emergence
Source text: as §2

[7] = tested on: Soybean; assay: Preemergence Herbicidal Activity, Soybean; settings: Glycine max, pre-emergence
Source text: as §1

[8] = tested on: Wheat; assay: Postemergence Herbicidal Activity, Wheat; settings: Triticum aestivum, post-emergence; for plant injury at 2000 g/ha: 2.0 kg/ha
Source text: as §1

[9] = tested on: Cotton; assay: Postemergence Herbicidal Activity, Cotton; settings: Gossypium hirsutum, post-emergence; for plant injury at 2000 g/ha: 2.0 kg/ha
Source text: as §2

[10] = tested on: Field Corn; assay: Postemergence Herbicidal Activity, Field Corn; settings: Zea mays, post-emergence; for plant injury at 2000 g/ha: 2.0 kg/ha
Source text: as §1

[11] = tested on: Velvetleaf; assay: Preemergence Herbicidal Activity, Velvetleaf; settings: Abutilon theophrasti, pre-emergence
Source text: as §2

[12] = tested on: Wheat; assay: Preemergence Herbicidal Activity, Wheat; settings: Triticum aestivum, pre-emergence
Source text: as §1

[13] = tested on: Barnyardgrass; assay: Preemergence Herbicidal Activity, Barnyardgrass; settings: Echinochloa crus-galli, pre-emergence
Source text: as §1

[14] = tested on: Field Bindweed; assay: Postemergence Herbicidal Activity, Field Bindweed; settings: post-emergence; for pest or weed control at 2000 g/ha: 2.0 kg/ha
Source text: as §2

[15] = tested on: Green Foxtail; assay: Postemergence Herbicidal Activity, Green Foxtail; settings: Setaria viridis, post-emergence; for pest or weed control at 2000 g/ha: 2.0 kg/ha
Source text: as §1

[16] = tested on: Rice; assay: Postemergence Herbicidal Activity, Rice; settings: Oryza sativa, post-emergence; for plant injury at 2000 g/ha: 2.0 kg/ha
Source text: as §1

[17] = tested on: Johnsongrass; assay: Postemergence Herbicidal Activity, Johnsongrass; settings: Sorghum halepense, post-emergence; for pest or weed control at 2000 g/ha: 2.0 kg/ha
Source text: as §1

[18] = tested on: Morningglory; assay: Postemergence Herbicidal Activity, Morningglory; settings: Ipomoea, post-emergence; for pest or weed control at 2000 g/ha: 2.0 kg/ha
Source text: as §2

[19] = tested on: Cotton; assay: Preemergence Herbicidal Activity, Cotton; settings: Gossypium hirsutum, pre-emergence
Source text: as §2

[20] = tested on: Green Foxtail; assay: Preemergence Herbicidal Activity, Green Foxtail; settings: Setaria viridis, pre-emergence
Source text: as §1

[21] = tested on: Field Corn; assay: Preemergence Herbicidal Activity, Field Corn; settings: Zea mays, pre-emergence
Source text: as §1

[22] = tested on: Soybean; assay: Postemergence Herbicidal Activity, Soybean; settings: Glycine max, post-emergence; for plant injury at 2000 g/ha: 2.0 kg/ha
Source text: as §1

SMILES: CS(=O)(=O)N(c1cc(-n2nnn(CCCF)c2=O)c(Cl)cc1F)S(C)(=O)=O [Compound 36, 1-[2-Chloro-4-fluoro-5-[bis-(N--methylsulfonyl)amino]phenyl]-4,5-dihydro-4-(3-fluoropropyl)-5H--tetrazol-5-one]
- pest or weed control at 2000 g/ha ([1]; 2.0 kg/ha): 40%
- pest or weed control at 2000 g/ha [2]: 90%
- pest or weed control at 2000 g/ha ([3]; 2.0 kg/ha): 100%
- plant injury at 2000 g/ha [4]: 0%
- pest or weed control at 2000 g/ha [5]: 50%
- pest or weed control at 2000 g/ha ([6]; 2.0 kg/ha): 90%
- plant injury at 2000 g/ha ([7]; 2.0 kg/ha): 0%
- plant injury at 2000 g/ha [8]: 10%
- plant injury at 2000 g/ha [9]: 70%
- plant injury at 2000 g/ha [10]: 10%
- pest or weed control at 2000 g/ha ([11]; 2.0 kg/ha): 95%
- plant injury at 2000 g/ha ([12]; 2.0 kg/ha): 0%
- pest or weed control at 2000 g/ha ([13]; 2.0 kg/ha): 70%
- pest or weed control at 2000 g/ha [14]: 60%
- pest or weed control at 2000 g/ha [15]: 50%
- plant injury at 2000 g/ha [16]: 10%
- pest or weed control at 2000 g/ha [17]: 50%
- pest or weed control at 2000 g/ha [18]: 80%
- plant injury at 2000 g/ha ([19]; 2.0 kg/ha): 70%
- pest or weed control at 2000 g/ha ([20]; 2.0 kg/ha): 50%
- plant injury at 2000 g/ha ([21]; 2.0 kg/ha): 70%
- plant injury at 2000 g/ha [22]: 10%

SMILES: CS(=O)(=O)N(c1cc(-n2nnn(CCCF)c2=O)ccc1Cl)S(C)(=O)=O [Compound 6]
- pest or weed control at 8000 g/ha ([1]; 8.0 kg/ha): 20%
- pest or weed control at 8000 g/ha ([2]; 8.0 kg/ha): 100%
- pest or weed control at 8000 g/ha ([3]; 8.0 kg/ha): 20%
- pest or weed control at 8000 g/ha ([5]; 8.0 kg/ha): 50%
- pest or weed control at 8000 g/ha ([6]; 8.0 kg/ha): 60%
- plant injury at 8000 g/ha ([7]; 8.0 kg/ha): 30%
- plant injury at 8000 g/ha ([8]; 8.0 kg/ha): 20%
- plant injury at 8000 g/ha ([9]; 8.0 kg/ha): 90%
- plant injury at 8000 g/ha ([10]; 8.0 kg/ha): 40%
- pest or weed control at 8000 g/ha ([11]; 8.0 kg/ha): 95%
- plant injury at 8000 g/ha ([12]; 8.0 kg/ha): 0%
- pest or weed control at 8000 g/ha ([13]; 8.0 kg/ha): 30%
- pest or weed control at 8000 g/ha ([14]; 8.0 kg/ha): 70%
- pest or weed control at 8000 g/ha ([15]; 8.0 kg/ha): 50%
- plant injury at 8000 g/ha ([16]; 8.0 kg/ha): 30%
- pest or weed control at 8000 g/ha ([17]; 8.0 kg/ha): 20%
- pest or weed control at 8000 g/ha ([18]; 8.0 kg/ha): 100%
- plant injury at 8000 g/ha ([19]; 8.0 kg/ha): 70%
- pest or weed control at 8000 g/ha ([20]; 8.0 kg/ha): 30%
- plant injury at 8000 g/ha ([21]; 8.0 kg/ha): 20%
- plant injury at 8000 g/ha ([22]; 8.0 kg/ha): 50%

SMILES: CCS(=O)(=O)Nc1cc(-n2nnn(C)c2=O)c(F)cc1Cl [Compound 43, 1-[4-Chloro-2-fluoro-5-(N--ethylsulfonylamino)phenyl]-4,5-dihydro-4-methyl-5H--tetrazol-5-one]
- pest or weed control at 2000 g/ha [2]: 95%
- pest or weed control at 2000 g/ha [5]: 50%
- plant injury at 2000 g/ha [8]: 50%
- plant injury at 2000 g/ha [9]: 100%
- plant injury at 2000 g/ha [10]: 30%
- pest or weed control at 2000 g/ha [14]: 100%
- pest or weed control at 2000 g/ha [15]: 40%
- plant injury at 2000 g/ha [16]: 50%
- pest or weed control at 2000 g/ha [17]: 70%
- pest or weed control at 2000 g/ha [18]: 100%
- plant injury at 2000 g/ha [22]: 50%
